Laboratory results: ChEMBL document CHEMBL3853350 (ACS Med Chem Lett, 2016)
pIC50: −log10 of the molar value.

Assays:
[1] = Volume of distribution at steady state in cynomolgus monkey plasma at 0.5 mg/kg, iv measured 24 hrs post dose by LC/MS/MS analysis; type: ADME, organism-based, Macaca fascicularis; details: read-out: Vdss
[2] = Cmax in Beagle dog plasma at […] administered via oral gavage measured 24 hrs post dose by LC/MS/MS analysis; type: ADME, organism-based, Canis lupus familiaris; design: dose 2.5 mg/kg, route oral
[3] = Apparent permeability from apical to basolateral side in human Caco2 cells at 10 uM by lucifer yellow flux assay; type: ADME, cell-based; details: Caco-2
Cytochrome P450 2B6 = biological target: T1, Cytochrome P450 2B6 (Homo sapiens, UniProt P20813); experiment: Inhibition of CYP2B6 in human liver microsomes after 5 mins in presence of NADPH by LC-MS/MS analysis; type: ADME
T1 sequence (P20813 whole entry): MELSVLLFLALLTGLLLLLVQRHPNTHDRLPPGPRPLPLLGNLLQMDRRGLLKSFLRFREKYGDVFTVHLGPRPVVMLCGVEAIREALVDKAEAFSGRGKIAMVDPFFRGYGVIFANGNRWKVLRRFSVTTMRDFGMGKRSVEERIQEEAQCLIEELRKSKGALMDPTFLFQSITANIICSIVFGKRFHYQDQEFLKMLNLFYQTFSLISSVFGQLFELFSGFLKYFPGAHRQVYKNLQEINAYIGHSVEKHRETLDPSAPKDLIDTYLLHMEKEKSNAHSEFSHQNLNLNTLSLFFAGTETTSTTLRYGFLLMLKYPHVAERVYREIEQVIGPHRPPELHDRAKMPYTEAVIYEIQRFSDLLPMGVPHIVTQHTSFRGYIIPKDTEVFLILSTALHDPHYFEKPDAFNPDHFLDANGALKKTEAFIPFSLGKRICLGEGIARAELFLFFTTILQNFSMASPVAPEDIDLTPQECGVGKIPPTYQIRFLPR

Cytochrome P450 2C9 = Cytochrome P450 2C9 (Homo sapiens, UniProt P11712); experiment: Inhibition of CYP2C9 in human liver microsomes after 5 mins in presence of NADPH by LC-MS/MS analysis; type: ADME
[4] = Half life in Sprague-Dawley rat plasma at 1 mg/kg, iv by LC/MS/MS analysis; type: ADME, organism-based
Cytochrome P450 2C8 = biological target: T2, Cytochrome P450 2C8 (Homo sapiens, UniProt P10632); experiment: Inhibition of CYP2C8 in human liver microsomes after 5 mins in presence of NADPH by LC-MS/MS analysis; type: ADME
T2 sequence (P10632 whole entry): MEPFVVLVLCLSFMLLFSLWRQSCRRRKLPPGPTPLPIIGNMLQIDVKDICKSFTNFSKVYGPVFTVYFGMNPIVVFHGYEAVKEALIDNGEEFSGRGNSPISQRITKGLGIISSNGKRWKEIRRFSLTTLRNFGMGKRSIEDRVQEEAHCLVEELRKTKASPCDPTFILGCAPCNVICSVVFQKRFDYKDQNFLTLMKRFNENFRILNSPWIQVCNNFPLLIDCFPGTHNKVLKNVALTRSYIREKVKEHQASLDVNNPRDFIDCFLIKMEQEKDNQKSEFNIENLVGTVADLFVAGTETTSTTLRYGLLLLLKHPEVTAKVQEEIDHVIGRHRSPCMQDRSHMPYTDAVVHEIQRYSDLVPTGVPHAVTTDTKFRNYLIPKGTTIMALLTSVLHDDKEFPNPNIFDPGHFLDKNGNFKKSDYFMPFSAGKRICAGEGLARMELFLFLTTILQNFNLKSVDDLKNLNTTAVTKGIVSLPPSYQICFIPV

Cytochrome P450 2D6 = Cytochrome P450 2D6 (Homo sapiens, UniProt P10635); experiment: Inhibition of CYP2D6 in human liver microsomes after 5 mins in presence of NADPH by LC-MS/MS analysis; type: ADME
[5] = AUC (0 to infinity) in CD-1 mouse plasma at 5 mg/kg administered via oral gavage measured 24 hrs post dose by LC/MS/MS analysis; type: ADME, organism-based; design: dose 5 mg/kg, time infinity, route oral
[6] = Volume of distribution at steady state in Sprague-Dawley rat plasma at 1 mg/kg, iv measured 24 hrs post dose by LC/MS/MS analysis; type: ADME, organism-based; details: read-out: Vdss
[7] = Fraction unbound in monkey plasma at 1 uM after 5 hrs by rapid equilibrium dialysis based LC-MS/MS analysis; type: ADME, cell-free, Macaca mulatta; details: rhesus monkey
[8] = Oral bioavailability in CD-1 mouse plasma at 5 mg/kg measured 24 hrs post dose by LC/MS/MS analysis; type: ADME, organism-based
[9] = Cmax in cynomolgus monkey plasma at […] administered via oral gavage measured 24 hrs post dose by LC/MS/MS analysis; type: ADME, organism-based, Macaca fascicularis; design: dose 2.5 mg/kg, route oral
[10] = Clearance in CD-1 mouse plasma at 1 mg/kg, iv measured 24 hrs post dose by LC/MS/MS analysis; type: ADME, organism-based
[11] = Clearance in Sprague-Dawley rat plasma at 1 mg/kg, iv measured 24 hrs post dose by LC/MS/MS analysis; type: ADME, organism-based
[12] = Cmax in CD-1 mouse plasma at 5 mg/kg administered via oral gavage measured 24 hrs post dose by LC/MS/MS analysis; type: ADME, organism-based; design: dose 5 mg/kg, route oral
Cytochrome P450 1A2 = biological target: T3, Cytochrome P450 1A2 (Homo sapiens, UniProt P05177); experiment: Inhibition of CYP1A2 in human liver microsomes after 5 mins in presence of NADPH by LC-MS/MS analysis; type: ADME
T3 sequence (P05177 whole entry): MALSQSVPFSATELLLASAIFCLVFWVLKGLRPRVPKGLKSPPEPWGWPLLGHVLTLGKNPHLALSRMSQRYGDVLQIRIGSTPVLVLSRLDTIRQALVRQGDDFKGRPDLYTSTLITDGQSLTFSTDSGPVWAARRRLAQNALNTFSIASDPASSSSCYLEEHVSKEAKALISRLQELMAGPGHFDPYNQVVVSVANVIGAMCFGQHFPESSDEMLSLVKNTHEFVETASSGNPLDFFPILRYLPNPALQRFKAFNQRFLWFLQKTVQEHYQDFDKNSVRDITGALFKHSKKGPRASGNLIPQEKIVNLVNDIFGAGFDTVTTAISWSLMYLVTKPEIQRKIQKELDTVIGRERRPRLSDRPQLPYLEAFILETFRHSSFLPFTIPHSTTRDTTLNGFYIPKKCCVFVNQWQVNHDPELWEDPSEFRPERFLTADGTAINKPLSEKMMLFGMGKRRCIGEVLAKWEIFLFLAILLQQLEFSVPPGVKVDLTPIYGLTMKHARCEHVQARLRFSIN

[13] = Fraction unbound in mouse plasma at 1 uM after 5 hrs by rapid equilibrium dialysis based LC-MS/MS analysis; type: ADME, cell-free
[14] = Half life in human hepatocytes at 1 uM by LC/MS analysis; type: ADME, cell-based, Hepatocyte
[15] = Half life in cynomolgus monkey plasma at 0.5 mg/kg, iv by LC/MS/MS analysis; type: ADME, organism-based, Macaca fascicularis
Salmonella typhimurium = experiment: Genotoxicity in Salmonella typhimurium by Ames test; type: toxicity, organism-based; details: salmonella enterica subsp. enterica serovar typhimurium
Cytochrome P450 2C19 = Cytochrome P450 2C19 (Homo sapiens, UniProt P33261); experiment: Inhibition of CYP2C19 in human liver microsomes after 5 mins in presence of NADPH by LC-MS/MS analysis; type: ADME
[16] = Oral bioavailability in Sprague-Dawley rat plasma at 5 mg/kg measured 24 hrs post dose by LC/MS/MS analysis; type: ADME, organism-based
[17] = Half life in mouse hepatocytes at 1 uM by LC/MS analysis; type: ADME, cell-based, Hepatocyte
[18] = Oral bioavailability in Beagle dog plasma at […] measured 24 hrs post dose by LC/MS/MS analysis; type: ADME, organism-based, Canis lupus familiaris

Sequence of Cytochrome P450 2C19 (P33261 whole entry): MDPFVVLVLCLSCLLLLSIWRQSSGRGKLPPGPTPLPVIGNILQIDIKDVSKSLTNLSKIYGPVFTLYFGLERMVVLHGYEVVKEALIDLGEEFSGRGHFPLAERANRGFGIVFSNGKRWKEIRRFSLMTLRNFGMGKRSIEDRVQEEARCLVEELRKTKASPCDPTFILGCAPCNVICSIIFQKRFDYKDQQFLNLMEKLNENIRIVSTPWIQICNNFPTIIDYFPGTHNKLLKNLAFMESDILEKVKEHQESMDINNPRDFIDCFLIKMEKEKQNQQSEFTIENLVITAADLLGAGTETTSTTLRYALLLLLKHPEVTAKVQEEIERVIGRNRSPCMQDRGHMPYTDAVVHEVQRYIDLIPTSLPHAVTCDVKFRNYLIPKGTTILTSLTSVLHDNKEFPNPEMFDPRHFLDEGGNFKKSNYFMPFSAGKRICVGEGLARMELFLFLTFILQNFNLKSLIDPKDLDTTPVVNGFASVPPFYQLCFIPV
Sequence of Cytochrome P450 2D6 (P10635 whole entry): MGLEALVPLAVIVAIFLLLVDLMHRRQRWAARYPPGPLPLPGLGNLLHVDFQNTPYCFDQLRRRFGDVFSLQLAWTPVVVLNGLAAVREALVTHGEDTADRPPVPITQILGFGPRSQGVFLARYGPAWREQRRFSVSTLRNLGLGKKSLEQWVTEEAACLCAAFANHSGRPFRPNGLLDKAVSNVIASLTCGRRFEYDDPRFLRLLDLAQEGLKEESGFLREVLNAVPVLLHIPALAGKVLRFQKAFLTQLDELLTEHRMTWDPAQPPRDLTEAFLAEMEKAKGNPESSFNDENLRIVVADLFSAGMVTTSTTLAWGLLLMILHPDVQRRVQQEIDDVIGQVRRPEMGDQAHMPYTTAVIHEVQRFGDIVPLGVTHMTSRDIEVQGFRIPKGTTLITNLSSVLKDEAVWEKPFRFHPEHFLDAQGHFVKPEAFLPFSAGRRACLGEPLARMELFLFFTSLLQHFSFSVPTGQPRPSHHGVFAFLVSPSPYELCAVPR
Sequence of Cytochrome P450 2C9 (P11712 whole entry): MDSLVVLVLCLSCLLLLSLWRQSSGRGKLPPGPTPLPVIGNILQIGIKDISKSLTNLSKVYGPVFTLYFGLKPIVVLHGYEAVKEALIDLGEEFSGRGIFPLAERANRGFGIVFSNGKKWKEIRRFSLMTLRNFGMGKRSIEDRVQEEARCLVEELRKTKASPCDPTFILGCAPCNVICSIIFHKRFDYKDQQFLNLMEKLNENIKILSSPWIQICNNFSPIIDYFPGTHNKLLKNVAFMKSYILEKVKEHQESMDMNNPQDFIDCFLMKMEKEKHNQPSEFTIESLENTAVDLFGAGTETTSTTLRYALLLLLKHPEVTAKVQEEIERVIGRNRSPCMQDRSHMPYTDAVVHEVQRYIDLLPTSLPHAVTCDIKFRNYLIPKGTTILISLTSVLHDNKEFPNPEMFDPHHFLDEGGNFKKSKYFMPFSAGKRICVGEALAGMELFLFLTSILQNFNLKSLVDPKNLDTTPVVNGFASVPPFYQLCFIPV

C[C@H](NC(=O)c1c(N)nn2cccnc12)c1cc2cccc(C#Cc3cnn(C)c3)c2c(=O)n1-c1ccccc1 [EGANELISIB]
Vd [1]: 1.3 L/kg | Cmax at 24 h [2]: 1900 nM | Papp A→B at 10 µM [3]: 13 ×10⁻⁶ cm/s | pIC50 (Cytochrome P450 2B6): < 4.70 | pIC50 (Cytochrome P450 2C9): < 4.70 | half-life [4]: 4.4 h | pIC50 (Cytochrome P450 2C8): < 4.70 | pIC50 (Cytochrome P450 2D6): < 4.70 | AUC(0-inf) [5]: 20600 ng·h/mL | Vd [6]: 1.2 L/kg | fraction unbound at 5 h, 1 µM [7]: 0.04 | bioavailability [8]: 88% | Cmax at 24 h [9]: 560 nM | clearance [10]: 3.6 mL/min/kg | clearance [11]: 4.4 mL/min/kg | Cmax [12]: 3600 nM | pIC50 (Cytochrome P450 1A2): < 4.70 | fraction unbound at 5 h, 1 µM [13]: 0.022 | half-life at 1 µM [14]: > 6 h | half-life [15]: 4.3 h | Activity (Salmonella typhimurium): Non-Toxic | pIC50 (Cytochrome P450 2C19): < 4.70 | bioavailability [16]: 57% | half-life at 1 µM [17]: > 6 h | bioavailability at 24 h [18]: 65%
